From patent US11986471B2, “Compounds and methods of use” (Tango Therapeutics, Inc., priority 2018, dated 2024)

How the values were obtained:
[1] = biological target: T1, PRMT5 (Homo sapiens, UniProt O14744); experiment: PRMT5 IC50 assay in the presence of SAM as cofactor; type: biochemical
T1 construct: purchased Viva (custom protein)
Method in brief: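 Human PRMT5 inhibition, IC50 in μM; cofactor varied (SAM / MTA / none).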

[2] = biological target: T1, PRMT5; experiment: PRMT5 IC50 assay with no cofactor; type: biochemical
Method in brief: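 Three cofactor conditions are run: SAM-bound, MTA-bound and cofactor-free enzyme. IC50 is read from each; for the SAM and MTA arms it is divided by 1.5 and 13.5 respectively to give Ki.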

[3] = biological target: T1, PRMT5; experiment: PRMT5 IC50 assay in the presence of MTA as cofactor; type: biochemical; details: for IC50: PRMT5, MTA as cofactor
Method in brief: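 For the SAM-containing format, dividing IC50 by 1.5 yields Ki; for the MTA-containing format the divisor is 13.5. A third format without cofactor gives IC50 alone.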

[4] = tested on: HAP1 MTAP-intact; experiment: SDMA in-cell western assay, HAP1 MTAP-intact cell line; type: cell-based; details: Homo sapiens
Method in brief: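 Potency reflects cellular SDMA reduction, detected by in-cell western, in HAP1 cells with or without MTAP (endogenous expression versus null).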

[5] = tested on: HAP1 MTAP-deleted; experiment: SDMA in-cell western assay, HAP1 MTAP-deleted cell line; type: cell-based; details: for IC50: Homo sapiens, HAP1 MTAP-deleted cell line; for MTAP Intact/Deleted Ratio: IC50 ratio HAP1 MTAP-intact / HAP1 MTAP-deleted
Method in brief: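 These are IC50 values from an in-cell western measuring SDMA. The HAP1 cells used carry no MTAP, in contrast to the isogenic partner line with endogenous MTAP expression.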

[6] = ratio between Ki in the presence of SAM and Ki in the presence of MTA
[7] = ratio between the Ki in the presence of SAM and the Ki in the presence of MTA

T1 sequence (O14744 whole entry): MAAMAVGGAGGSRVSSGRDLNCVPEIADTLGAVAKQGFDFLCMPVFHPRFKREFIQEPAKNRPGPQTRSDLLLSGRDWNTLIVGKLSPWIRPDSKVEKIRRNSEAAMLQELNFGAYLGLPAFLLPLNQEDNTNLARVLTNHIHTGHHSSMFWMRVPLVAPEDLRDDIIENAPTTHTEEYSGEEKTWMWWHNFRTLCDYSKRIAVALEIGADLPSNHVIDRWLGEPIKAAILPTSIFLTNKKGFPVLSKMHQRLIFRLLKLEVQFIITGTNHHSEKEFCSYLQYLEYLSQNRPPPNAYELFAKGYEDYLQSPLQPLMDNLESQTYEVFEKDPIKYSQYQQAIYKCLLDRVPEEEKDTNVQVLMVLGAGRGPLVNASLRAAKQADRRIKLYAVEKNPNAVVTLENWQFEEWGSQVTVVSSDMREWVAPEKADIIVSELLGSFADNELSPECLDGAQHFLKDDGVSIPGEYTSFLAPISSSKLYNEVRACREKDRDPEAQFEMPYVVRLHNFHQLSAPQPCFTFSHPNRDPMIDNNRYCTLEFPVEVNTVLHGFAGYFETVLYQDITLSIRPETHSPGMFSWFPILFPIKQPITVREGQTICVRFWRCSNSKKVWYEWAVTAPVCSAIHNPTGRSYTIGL
T1 sequence (Q9BQA1 whole entry partner): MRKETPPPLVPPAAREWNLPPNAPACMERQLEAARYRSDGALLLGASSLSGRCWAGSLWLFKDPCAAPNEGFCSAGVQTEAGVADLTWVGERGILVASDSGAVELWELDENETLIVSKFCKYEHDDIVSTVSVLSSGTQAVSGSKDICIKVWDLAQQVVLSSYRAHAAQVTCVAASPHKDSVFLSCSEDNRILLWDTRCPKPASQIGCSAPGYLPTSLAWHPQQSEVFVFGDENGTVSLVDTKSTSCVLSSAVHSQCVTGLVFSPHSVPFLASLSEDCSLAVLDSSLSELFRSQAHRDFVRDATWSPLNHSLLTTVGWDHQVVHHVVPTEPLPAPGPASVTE

SMILES	IC50 [1] [nM]	IC50 ([2]; read-out: No Co-factor IC50) [µM]	IC50 [3] [nM]	SAM/MTA Ratio [3, 6]	IC50 [4] [µM]	IC50 [5] [nM]	MTAP Intact/Deleted Ratio [5]	IC50 [2] [µM]	SAM/MTA Ratio [3, 7]
COCCN(C)c1nc(NC2COC2)cc(C(=O)NC[C@H](O)CN2CCc3c(ccc(OCc4ocnc4C)c3C)C2)n1 [Compound 398, N-[(2S)-2-hydroxy-3-{5-methyl-6-[(4-methyl-1,3-oxazol-5-yl)methoxy]-1,2,3,4-tetrahydroisoquinolin-2-yl}propyl]-2-[(2-methoxyethyl)(methyl)amino]-6-[(oxetan-3-yl)amino]pyrimidine-4-carboxamide]	50 to 500	≥ 5	50 to 500	A (a Ki ratio greater than or equal to 10 fold between the Ki in the presence of SAM and the Ki in the presence of MTA)	≥ 10	1000 to 10000	B* (an IC50 ratio greater than or equal to 3 fold but lower than 10 fold between the IC50 in the HAP1 MTAP-intact cell line and the HAP1 MTAP-deleted cell line)	–	–
CCCN(C)c1nc(NC2COC2)cc(C(=O)NC[C@H](O)CN2CCc3c(ccc(OCc4cnco4)c3Cl)C2)n1 [Compound 312, (S)—N-(3-(5-chloro-6-(oxazol-5-ylmethoxy)-3N-dihydroisoquinolin-2(1H)-yl)-2-hydroxypropyl)-2-(methyl(propyl)amino)-6-(oxetan-3-ylamino)pyrimidine-4-carboxamide]	50 to 500	0.5 to 5	50 to 500	A (a Ki ratio greater than or equal to 10 fold between the Ki in the presence of SAM and the Ki in the presence of MTA)	≥ 10	1000 to 10000	B* (an IC50 ratio greater than or equal to 3 fold but lower than 10 fold between the IC50 in the HAP1 MTAP-intact cell line and the HAP1 MTAP-deleted cell line)	–	–
Cc1ncoc1COc1ccc2c(c1C)CCN(C[C@@H](O)CNC(=O)c1ccnc(NC3CCCC3)c1)C2 [Compound 418, 2-(cyclopentylamino)-N-[(2S)-2-hydroxy-3-{5-methyl-6-[(4-methyl-1,3-oxazol-5-yl)methoxy]-1,2,3,4-tetrahydroisoquinolin-2-yl}propyl]pyridine-4-carboxamide]	50 to 500	≥ 5	50 to 500	A (a Ki ratio greater than or equal to 10 fold between the Ki in the presence of SAM and the Ki in the presence of MTA)	≥ 10	1000 to 10000	C* (an IC50 ratio of less than 3 fold between the IC50 in the HAP1 MTAP-intact cell line and the HAP1 MTAP-deleted cell line)	–	–
Cc1ncoc1COc1ccc2c(c1C)CCN(C[C@@H](O)CNC(=O)c1cc(NC3CCCCC3)ncn1)C2 [Compound 368, 6-(cyclohexylamino)-N-[(2S)-2-hydroxy-3-{5-methyl-6-[(4-methyl-1,3-oxazol-5-yl)methoxy]-1,2,3,4-tetrahydroisoquinolin-2-yl}propyl]pyrimidine-4-carboxamide]	500 to 5000	≥ 5	50 to 500	A (a Ki ratio greater than or equal to 10 fold between the Ki in the presence of SAM and the Ki in the presence of MTA)	≥ 10	≥ 10000	C* (an IC50 ratio of less than 3 fold between the IC50 in the HAP1 MTAP-intact cell line and the HAP1 MTAP-deleted cell line)	–	–
Cc1ncoc1COc1ccc2c(n1)CCN(C[C@@H](O)CNC(=O)c1ccnc(NC3CCC3)c1)C2 [Compound 467, 2-(cyclobutylamino)-N-[(2S)-2-hydroxy-3-[2-[(4-methyloxazol-5-yl)methoxy]-7,8-dihydro-5H-1,6-naphthyridin-6-yl]propyl]pyridine-4-carboxamide]	50 to 500	–	50 to 500	–	≥ 10	1000 to 10000	C* (an IC50 ratio of less than 3 fold between the IC50 in the HAP1 MTAP-intact cell line and the HAP1 MTAP-deleted cell line)	≥ 5	A (a Ki ratio greater than or equal to 10 fold between the Ki in the presence of SAM and the Ki in the presence of MTA)
CCN1CCN(c2nc(NC3COC3)cc(C(=O)NC[C@H](O)CN3CCc4c(ccc(OCc5cnco5)c4Cl)C3)n2)CC1 [Compound 324]	50 to 500	0.5 to 5	50 to 500	A (a Ki ratio greater than or equal to 10 fold between the Ki in the presence of SAM and the Ki in the presence of MTA)	≥ 10	1000 to 10000	C* (an IC50 ratio of less than 3 fold between the IC50 in the HAP1 MTAP-intact cell line and the HAP1 MTAP-deleted cell line)	–	–
CC(C)C(=O)N1CCN(c2nc(NC3COC3)cc(C(=O)NC[C@H](O)CN3CCc4cc(OCc5cnco5)ccc4C3)n2)CC1 [Compound 313]	50 to 500	0.5 to 5	50 to 500	A (a Ki ratio greater than or equal to 10 fold between the Ki in the presence of SAM and the Ki in the presence of MTA)	1 to 10	1000 to 10000	C* (an IC50 ratio of less than 3 fold between the IC50 in the HAP1 MTAP-intact cell line and the HAP1 MTAP-deleted cell line)	–	–
CC(=O)N1CCC(Nc2cc(C(=O)NC[C@H](O)CN3CCc4c(ccc(OCc5ocnc5C)c4C)C3)cc(N3CCCCC3)n2)CC1 [Compound 595]	50 to 500	–	< 50	–	1 to 10	< 1000	A* (an IC50 ratio greater than or equal to 10 fold between the IC50 in the HAP1 MTAP-intact cell line and the HAP1 MTAP-deleted cell line)	0.5 to 5	A (a Ki ratio greater than or equal to 10 fold between the Ki in the presence of SAM and the Ki in the presence of MTA)
CC(=O)N1CCN(c2nc(NC3COC3)cc(C(=O)NC[C@H](O)CN3CCc4cc(OCc5ocnc5C)ccc4C3)n2)CC1 [Compound 401, 2-(4-acetylpiperazin-1-yl)-N-[(2S)-2-hydroxy-3-{6-[(4-methyl-E3-oxazol-5-yl)methoxy]-1,2,3,4-tetrahydroisoquinolin-2-yl}propyl]-6-[(oxetan-3-yl)amino]pyrimidine-4-carboxamide]	50 to 500	0.5 to 5	50 to 500	A (a Ki ratio greater than or equal to 10 fold between the Ki in the presence of SAM and the Ki in the presence of MTA)	≥ 10	1000 to 10000	B* (an IC50 ratio greater than or equal to 3 fold but lower than 10 fold between the IC50 in the HAP1 MTAP-intact cell line and the HAP1 MTAP-deleted cell line)	–	–
CCC(=O)N1CCN(c2cc(C(=O)NC[C@H](O)CN3CCc4cc(OCc5ocnc5C)ccc4C3)cc(NC3CCC3)n2)CC1 [Compound 389, 2-(cyclobutylamino)-N-[(2S)-2-hydroxy-3-{6-[(4-methyl-1,3-oxazol-5-yl)methoxy]-1,2,3,4-tetrahydroisoquinolin-2-yl}propyl]-6-(4-propanoylpiperazin-1-yl)pyridine-4-carboxamide]	50 to 500	0.5 to 5	50 to 500	A (a Ki ratio greater than or equal to 10 fold between the Ki in the presence of SAM and the Ki in the presence of MTA)	< 1	< 1000	B* (an IC50 ratio greater than or equal to 3 fold but lower than 10 fold between the IC50 in the HAP1 MTAP-intact cell line and the HAP1 MTAP-deleted cell line)	–	–
Cc1ncoc1COc1cc(F)c2c(c1)CCN(C[C@@H](O)CNC(=O)c1ccnc(NC3CCC3)c1)C2 [Compound 506, 2-(cyclobutylamino)-N-[(2S)-3-[8-fluoro-6-[(4-methyloxazol-5-yl)methoxy]-3,4-dihydro-1H-isoquinolin-2-yl]-2-hydroxy-propyl]pyridine-4-carboxamide]	50 to 500	–	50 to 500	–	≥ 10	1000 to 10000	B* (an IC50 ratio greater than or equal to 3 fold but lower than 10 fold between the IC50 in the HAP1 MTAP-intact cell line and the HAP1 MTAP-deleted cell line)	≥ 5	A (a Ki ratio greater than or equal to 10 fold between the Ki in the presence of SAM and the Ki in the presence of MTA)
CC(=O)N1CCC(Nc2cc(C(=O)NC[C@H](O)CN3CCc4cc(OCc5ocnc5C)ccc4C3)cc(N3CCCCC3)c2)CC1 (single isomer, unassigned) [Compound 631]	50 to 500	≥ 5	50 to 500	A (a Ki ratio greater than or equal to 10 fold between the Ki in the presence of SAM and the Ki in the presence of MTA)	1 to 10	< 1000	B* (an IC50 ratio greater than or equal to 3 fold but lower than 10 fold between the IC50 in the HAP1 MTAP-intact cell line and the HAP1 MTAP-deleted cell line)	–	–
CC(=O)N1CCC(Nc2cc(C(=O)NC[C@H](O)CN3CCc4cc(OCc5ocnc5C)ccc4C3)ccn2)C(C)C1 (stereo partly drawn) [Compound 637, 2-((1-acetyl-3-methylpiperidin-4-yl)amino)-N—((S)-2-hydroxy-3-(6-((4-methyloxazol-5-yl)methoxy)-3,4-dihydroisoquinolin-2(1H)-yl)propyl)isonicotinamide]	50 to 500	≥ 5	50 to 500	A (a Ki ratio greater than or equal to 10 fold between the Ki in the presence of SAM and the Ki in the presence of MTA)	1 to 10	1000 to 10000	B* (an IC50 ratio greater than or equal to 3 fold but lower than 10 fold between the IC50 in the HAP1 MTAP-intact cell line and the HAP1 MTAP-deleted cell line)	–	–
